The test system of experiment [1] is C4-2 (parental) cells, AR(+). The experiment is described as follows: CRPC cell proliferation assay (CellTiter-Glo), C4-2. In kind it is cell-based. The note with it: CTG at 96h. As to the method:
(§1) Castrate-Resistant Prostate Cancer (CRPC) Cell Proliferation Assay • Cells were seeded into 96-well plates at 2,000-10,000 cells/well in 100 uL medium. Four AR(+) cell lines (LnCaP, C4-2 (parental), C4-2AR-WT and C4-2AR—F876L) and one AR(−) cell line (DU-145) were studied. Compound treated cells were analyzed for cell density at 96h, using CellTiter-Glo® (CTG) reagent (Promega).
For orientation: In ATP-based viability assays light output follows the ATP content of the culture.

A further experiment concerns MM1.S cells. The experiment is described as follows: MM1.S cell proliferation assay (CellTiter-Glo). In kind it is cell-based. The note with it: for IC50: MM1.S, CTG at 96h; for inhibition of proliferation of MM1.S cells: dose dependent manner, FIG. 1.A. As for the experimental part:
(§2) MM1.S (dexamethasone sensitive) and OPM-2 cells were purchased from ATCC and maintained in RPMI-1640 medium with 10% fetal bovine serum at 37 degrees, 5% CO2. Cells were seeded at 10,000 cells/well in 100 uL medium. The following day compounds or control vehicle (DMSO) were added at indicated concentrations in 10 ul volume. Compound treated OPM-2 cells and MM1.S cell were analyzed for cell density at 72h and 96h, respectively, using CellTiter-Glo® (CTG) reagent (Promega). The CTG assay measures the amount of ATP present, which indicates the number of viable cells in culture.

In experiment [2] the test system is C4-2AR-F876L cells, AR(+). The experiment is described as follows: CRPC cell proliferation assay (CellTiter-Glo), C4-2AR-F876L. In kind it is cell-based. The note with it: CTG at 96h. As for the experimental part: as §1
Experiment [3] has as its system LPS-induced IL-6 production in human whole blood. In words: IL-6 human whole blood (HWB) assay, LPS-stimulated, HTRF detection. In kind it is cell-based. The note with it: 1 ng/ml LPS, 4 hours. A general note: In TR-FRET formats the signal depends on donor and acceptor labels being close together.
The next experiment deals with DU-145 cells, AR(−). In words: CRPC cell proliferation assay (CellTiter-Glo), DU-145. The note with it: CTG at 96h; for IC50: Homo sapiens. In kind it is cell-based. As to the method: as §1
For the next experiment, the target named is T1, BRD4 BD1 (Homo sapiens, UniProt O60885).
T1 construct: His-tagged BRD4 BD1 (44-160); made in house
The experiment is described as follows: BRD4 BD1 Fluorescence Polarization (FP) competition binding assay. The note with it: BRD4 BD1 40 nM, probe PFI-411FP 2 nM. In outline:
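BRD4 BD1 (40 nM) preincubated 15 min at 20° C. with compound (120 to 0.0012 μM) in HEPES pH 7.4 with 0.08% BSA, then 2 nM PFI-411FP tracer added for 60 min. Fluorescence polarization read (ex 620/em 688 nm); IC50 from four-parameter fit, converted to Ki via Nikolovska-Coleska equation.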
In general terms: Fluorescence polarisation rises when a labelled molecule tumbles more slowly, as on binding a larger partner.

The next experiment relates to C4-2AR-WT cells, AR(+). In words: CRPC cell proliferation assay (CellTiter-Glo), C4-2AR-WT. It is filed as cell-based. The note with it: CTG at 96h. As for the experimental part: as §1
Another experiment deals with LnCaP cells, AR(+). In words: CRPC cell proliferation assay (CellTiter-Glo), LnCaP. It is filed as cell-based. The note with it: CTG at 96h; for IC50: Homo sapiens. As to the method:
as §1

In another experiment the test system is OPM-2 cells. In words: OPM-2 cell proliferation assay (CellTiter-Glo). In kind it is cell-based. The note with it: for IC50: OPM-2, CTG at 72h; for inhibition of proliferation of OPM-2 cells: dose dependent manner, FIG. 1.B. As to the method: as §2
Experiment [4] deals with MYC, SOX2, involucrin and Keratin 14 expression in HCC2429 cells. In words: Biomarker analysis in HCC2429 cells (RT-PCR, Western blot). It is filed as cell-based. The note with it: for mRNA expression of involucrin: HCC2429, RT-PCR, 72 hours, 50 nM, 200 nM and 500 nM, dose dependent; for MYC protein level / SOX2 protein level: HCC2429, Western blot, 72 hrs, concentration-dependent. As for the experimental part: HCC2429 cells were plated into a 6-well plate (250,000 cells/well). Cells were treated with compounds or control vehicle (DMSO) at the indicated concentrations for 72 hrs. Cells were collected, washed in PBS, and split for western blot and RNA analysis.

The test system of another experiment is HCC2429 cells. The experiment is described as follows: NMC HCC2429 cell proliferation assay (CellTiter-Glo). The note with it: HCC2429, CTG at 96h. It is filed as cell-based. As for the experimental part: NMC HCC2429 Cell Proliferation Assay • HCC2429 cells were plated into a 96-well plate (10,000 cells/well). Compounds or control vehicle (DMSO) were added at indicated concentrations. Compound-treated HCC2429 cells were analyzed for cell density at 96h using CellTiter-Glo® (CTG) reagent (Promega).

Experiment [5] deals with CRPC cell lines (LnCaP, C4-2, C4-2AR-WT, C4-2AR-F876L, DU-145). The experiment is described as follows: CRPC cell proliferation assay, summary over the cell lines. It is filed as cell-based. As to the method: Castrate-Resistant Prostate Cancer (CRPC) Cell Proliferation Assay • Cells were seeded into 96-well plates at 2,000-10,000 cells/well in 100 uL medium. Four AR(+) cell lines (LnCaP, C4-2 (parental), C4-2AR-WT and C4-2AR—F876L) and one AR(−) cell line (DU-145) were studied. Compound treated cells were analyzed for cell density at 96h, using CellTiter-Glo® (CTG) reagent (Promega). […] Example 10 and IBET-151 BET had submicromolar IC50 values in the AR(+) cell lines. The inhibitors maintained potency in C4-2 cells engineered to express wild type (WT) AR receptor (C4-2-AR-WT), as well as cells engineered to express the F876L mutation (C4-2-AR-F876L) that confers resistance to androgen receptor (AR) antagonists.

Here are results for 9 compounds from patent US20160368919A1, “NOVEL PYRIDINE PYRAZINONES AS BET-FAMILY BROMODOMAIN INHIBITORS” (Pfizer Inc., priority 2015, published 2016).

The term IC50 denotes the concentration that inhibits the measured activity by half. As to `CC[C@H](COC)n1c(=O)c(NCCC(=O)O)nc2ccc(-c3c(C)noc3C)nc21` [Example 47, N-{6-(3,5-dimethyl-1,2-oxazol-4-yl)-4-[(2R)-1-methoxybutan-2-yl]-3-oxo-3,4-dihydropyrido[2,3-b]pyrazin-2-yl}-beta-alanine], the IC50 in experiment [1] was above 5000 nM; with MM1.S cells (Homo sapiens), 39 nM; in experiment [2], above 5000 nM; in experiment [3], 6160 nM; in the experiment with DU-145 cells, AR(−) it was above 5000 nM; at BRD4 BD1 it was 194 nM. The IC50 in the experiment with C4-2AR-WT cells, AR(+) is above 5000 nM; in the experiment on LnCaP cells, AR(+), above 5000 nM; in the experiment with OPM-2 cells (Homo sapiens) it was 160 nM. Also, the “Max % Inh” value was 80% in experiment [1]; 81% in [2]; 43% in the experiment with DU-145 cells, AR(−); 82% with C4-2AR-WT cells, AR(+); 62% with LnCaP cells, AR(+). The “inhibition of proliferation of MM1.S cells” value (“inhibition … of MM1.S cells” below) with MM1.S cells is given as “inhibited proliferation”. For the same compound, the “inhibition of proliferation of OPM-2 cells” value (“inhibition … of OPM-2 cells” for short) with OPM-2 cells is “inhibited proliferation”.
For `Cc1noc(C)c1-c1ccc2nc(NCCC(=O)O)c(=O)n([C@@H](C)C3CCCCC3)c2n1` [Example 55, N-{4-[(1S)-1-cyclohexylethyl]-6-(3,5-dimethyl-1,2-oxazol-4-yl)-3-oxo-3,4-dihydropyrido[2,3-b]pyrazin-2-yl}-beta-alanine], the IC50 in experiment [3] is 11400 nM; on BRD4 BD1 it was 130 nM.
For `CCC(CC)n1c(=O)c(NCCC(=O)O)nc2ccc(-c3c(C)noc3C)nc21` [Example 56, N-[6-(3,5-dimethyl-1,2-oxazol-4-yl)-3-oxo-4-(pentan-3-yl)-3,4-dihydropyrido[2,3-b]pyrazin-2-yl]-beta-alanine] the same measures were 11900 nM and 346 nM.
The like results for `CNC(=O)CNc1nc2ccc(-c3c(C)noc3C)nc2n([C@@H](C)c2ccccc2OC)c1=O` [Example 57, N^2-{6-(3,5-dimethyl-1,2-oxazol-4-yl)-4-[(1S)-1-(2-methoxyphenyl)ethyl]-3-oxo-3,4-dihydropyrido[2,3-b]pyrazin-2-yl}-N-methylglycinamide] were, in that order, 919 nM and 159 nM.
Take `CCNC(=O)C[C@@H]1N=C(c2ccc(Cl)cc2)c2cc(OC)ccc2-n2c(C)nnc21` [IBET-762]: the IC50 in the experiment with MM1.S cells (Homo sapiens) was 12 nM; in the experiment with HCC2429 cells (Homo sapiens), 85 nM; with OPM-2 cells (Homo sapiens), 30 nM. The “inhibition … of MM1.S cells” value with MM1.S cells was “inhibited proliferation”. The “mRNA expression of involucrin” value in experiment [4] is “increased”. Also, the MYC protein level result in experiment [4] was “down-regulated”. Besides, the SOX2 protein level entry in experiment [4] was “down-regulated”. The “inhibition … of OPM-2 cells” value in the experiment with OPM-2 cells was “inhibited proliferation”.
Regarding `Cc1sc2c(c1C)C(c1ccc(Cl)cc1)=N[C@@H](CC(=O)OC(C)(C)C)c1nnc(C)n1-2` [JQ1(+)], in the experiment on MM1.S cells, inhibition was half-maximal at 11 nM (IC50) and the “inhibition … of MM1.S cells” value is “inhibited proliferation”. Further, in experiment [4], the “mRNA expression of involucrin” value is “increased”, the MYC protein level entry was “down-regulated” and the SOX2 protein level entry is given as “down-regulated”. In addition, the midpoint of inhibition in the experiment with HCC2429 cells, the IC50, lay at 44 nM. In addition, in the experiment with OPM-2 cells, the IC50 is 9 nM and the “inhibition … of OPM-2 cells” value is “inhibited proliferation”.
Consider `Cc1sc2c(c1C)C(c1ccc(Cl)cc1)=N[C@@H](CC(=O)OC(C)(C)C)c1nnc(C)n1-2` [JQ1(−)], for which the IC50 with MM1.S cells and in the experiment with OPM-2 cells was above 1000 nM in each case.
Regarding `CNC(=O)c1ccc(N2C(=S)N(c3ccc(C#N)c(C(F)(F)F)c3)C(=O)C2(C)C)cc1F` [MDV3100, reference compound], the “Max % Inh” value in experiment [1] came out at 33%; in [2], 44%; in the experiment on DU-145 cells, AR(−) it was 23%; in the experiment on C4-2AR-WT cells, AR(+), 39%; in the experiment on LnCaP cells, AR(+), 43%. Moreover, the “activity on cell proliferation” value in experiment [5] (short-term assay, compared with the BET inhibitors) is given as “weaker activity”.
Turning to `COc1cc2c(cc1-c1c(C)noc1C)ncc1[nH]c(=O)n([C@H](C)c3ccccn3)c12` [i-BET151, reference compound], the IC50 came to 490 nM in [1]; 470 nM in experiment [2]; 1130 nM with DU-145 cells, AR(−); 430 nM in the experiment with C4-2AR-WT cells, AR(+); 400 nM in the experiment on LnCaP cells, AR(+). Further, the “Max % Inh” value stood at 90% in experiment [1]; 90% in experiment [2]; 74% with DU-145 cells, AR(−); 92% with C4-2AR-WT cells, AR(+); 78% in the experiment on LnCaP cells, AR(+). In addition, the “IC50 values in the AR(+) cell lines” value in [5] (AR(+) cell lines, CTG at 96h) is on record as “submicromolar”.
